Oligonucleotides are given in HELM: sugar(base)linkage, 5' to 3'; d 2'-deoxyribose, r ribose, m 2'-O-methylribose, p phosphate. ss, as = sense and antisense strand
Also: test concentration or dose not given here.

The target in one series is UBE2N. In words: reporter assay of Huesken 2005. The settings on record: siRNA. Background: A reporter such as luciferase makes a cellular process visible.
The substance “RNA1{r(G)p.r(U)p.r(G)p.r(G)p.r(U)p.r(C)p.r(C)p.r(C)p.r(C)p.r(A)p.r(G)p.r(C)p.r(A)p.r(C)p.r(U)p.r(G)p.r(C)p.r(A)p.r(G)p.d(T)p.d(T)}|RNA2{r(C)p.r(U)p.r(G)p.r(C)p.r(A)p.r(G)p.r(U)p.r(G)p.r(C)p.r(U)p.r(G)p.r(G)p.r(G)p.r(G)p.r(A)p.r(C)p.r(C)p.r(A)p.r(C)p.d(T)p.d(T)}$$$RNA1{StrandType:ss}|RNA2{StrandType:as}$” showed a normalised inhibition (eCFP-eYFP dual reporter) of 59.4%. Take “RNA1{r(A)p.r(C)p.r(G)p.r(U)p.r(U)p.r(U)p.r(C)p.r(A)p.r(U)p.r(G)p.r(A)p.r(C)p.r(C)p.r(A)p.r(A)p.r(A)p.r(A)p.r(U)p.r(U)p.d(T)p.d(T)}|RNA2{r(A)p.r(A)p.r(U)p.r(U)p.r(U)p.r(U)p.r(G)p.r(G)p.r(U)p.r(C)p.r(A)p.r(U)p.r(G)p.r(A)p.r(A)p.r(A)p.r(C)p.r(G)p.r(U)p.d(A)p.d(C)}$$$RNA1{StrandType:ss}|RNA2{StrandType:as}$”: the normalised inhibition (eCFP-eYFP dual reporter) stood at 92.1%. Same read-out and setting: for “RNA1{r(A)p.r(U)p.r(U)p.r(U)p.r(A)p.r(U)p.r(C)p.r(A)p.r(U)p.r(C)p.r(C)p.r(U)p.r(A)p.r(A)p.r(U)p.r(G)p.r(U)p.r(A)p.r(G)p.d(T)p.d(T)}|RNA2{r(C)p.r(U)p.r(A)p.r(C)p.r(A)p.r(U)p.r(U)p.r(A)p.r(G)p.r(G)p.r(A)p.r(U)p.r(G)p.r(A)p.r(U)p.r(A)p.r(A)p.r(A)p.r(U)p.d(T)p.d(T)}$$$RNA1{StrandType:ss}|RNA2{StrandType:as}$” the value was 49.2%; for “RNA1{r(G)p.r(A)p.r(A)p.r(G)p.r(C)p.r(C)p.r(C)p.r(A)p.r(A)p.r(G)p.r(C)p.r(C)p.r(A)p.r(U)p.r(A)p.r(G)p.r(A)p.r(A)p.r(A)p.d(T)p.d(T)}|RNA2{r(U)p.r(U)p.r(U)p.r(C)p.r(U)p.r(A)p.r(U)p.r(G)p.r(G)p.r(C)p.r(U)p.r(U)p.r(G)p.r(G)p.r(G)p.r(C)p.r(U)p.r(U)p.r(C)p.d(G)p.d(T)}$$$RNA1{StrandType:ss}|RNA2{StrandType:as}$”, 90.3%; for “RNA1{r(C)p.r(C)p.r(A)p.r(U)p.r(U)p.r(A)p.r(G)p.r(C)p.r(A)p.r(A)p.r(A)p.r(U)p.r(G)p.r(A)p.r(U)p.r(G)p.r(U)p.r(A)p.r(G)p.d(T)p.d(T)}|RNA2{r(C)p.r(U)p.r(A)p.r(C)p.r(A)p.r(U)p.r(C)p.r(A)p.r(U)p.r(U)p.r(U)p.r(G)p.r(C)p.r(U)p.r(A)p.r(A)p.r(U)p.r(G)p.r(G)p.d(A)p.d(T)}$$$RNA1{StrandType:ss}|RNA2{StrandType:as}$”, 77.9%. Same read-out and setting: for “RNA1{r(A)p.r(A)p.r(A)p.r(C)p.r(U)p.r(U)p.r(G)p.r(A)p.r(A)p.r(C)p.r(U)p.r(A)p.r(U)p.r(U)p.r(C)p.r(C)p.r(U)p.r(U)p.r(C)p.d(T)p.d(T)}|RNA2{r(G)p.r(A)p.r(A)p.r(G)p.r(G)p.r(A)p.r(A)p.r(U)p.r(A)p.r(G)p.r(U)p.r(U)p.r(C)p.r(A)p.r(A)p.r(G)p.r(U)p.r(U)p.r(U)p.d(A)p.d(A)}$$$RNA1{StrandType:ss}|RNA2{StrandType:as}$” the value was 43.6%.

In a further series the target is UBE2K. The experiment in a line: reporter assay of Huesken 2005. The settings on record: siRNA.
On to “RNA1{r(G)p.r(C)p.r(U)p.r(G)p.r(U)p.r(A)p.r(G)p.r(U)p.r(A)p.r(G)p.r(C)p.r(A)p.r(A)p.r(A)p.r(U)p.r(C)p.r(A)p.r(G)p.r(U)p.d(T)p.d(T)}|RNA2{r(A)p.r(C)p.r(U)p.r(G)p.r(A)p.r(U)p.r(U)p.r(U)p.r(G)p.r(C)p.r(U)p.r(A)p.r(C)p.r(U)p.r(A)p.r(C)p.r(A)p.r(G)p.r(C)p.d(A)p.d(T)}$$$RNA1{StrandType:ss}|RNA2{StrandType:as}$”, for which the normalised inhibition (eCFP-eYFP dual reporter) stood at 87.4%.

On to “RNA1{r(A)p.r(G)p.r(A)p.r(C)p.r(A)p.r(C)p.r(A)p.r(C)p.r(C)p.r(A)p.r(U)p.r(A)p.r(U)p.r(G)p.r(A)p.r(A)p.r(G)p.r(G)p.r(A)p.d(T)p.d(T)}|RNA2{r(U)p.r(C)p.r(C)p.r(U)p.r(U)p.r(C)p.r(A)p.r(U)p.r(A)p.r(U)p.r(G)p.r(G)p.r(U)p.r(G)p.r(U)p.r(G)p.r(U)p.r(C)p.r(U)p.d(G)p.d(G)}$$$RNA1{StrandType:ss}|RNA2{StrandType:as}$”, for which the normalised inhibition (eCFP-eYFP dual reporter) is 81%.

As to “RNA1{r(U)p.r(A)p.r(G)p.r(U)p.r(A)p.r(G)p.r(C)p.r(A)p.r(A)p.r(A)p.r(U)p.r(C)p.r(A)p.r(G)p.r(U)p.r(A)p.r(C)p.r(A)p.r(A)p.d(T)p.d(T)}|RNA2{r(U)p.r(U)p.r(G)p.r(U)p.r(A)p.r(C)p.r(U)p.r(G)p.r(A)p.r(U)p.r(U)p.r(U)p.r(G)p.r(C)p.r(U)p.r(A)p.r(C)p.r(U)p.r(A)p.d(C)p.d(A)}$$$RNA1{StrandType:ss}|RNA2{StrandType:as}$”, the normalised inhibition (eCFP-eYFP dual reporter) was 87.9%.

“RNA1{r(U)p.r(U)p.r(C)p.r(C)p.r(G)p.r(U)p.r(C)p.r(A)p.r(C)p.r(A)p.r(G)p.r(G)p.r(G)p.r(G)p.r(C)p.r(U)p.r(A)p.r(U)p.r(U)p.d(T)p.d(T)}|RNA2{r(A)p.r(A)p.r(U)p.r(A)p.r(G)p.r(C)p.r(C)p.r(C)p.r(C)p.r(U)p.r(G)p.r(U)p.r(G)p.r(A)p.r(C)p.r(G)p.r(G)p.r(A)p.r(A)p.d(C)p.d(T)}$$$RNA1{StrandType:ss}|RNA2{StrandType:as}$” gave a normalised inhibition (eCFP-eYFP dual reporter) of 55.5%. Still for that read-out and setting: for “RNA1{r(A)p.r(G)p.r(U)p.r(A)p.r(G)p.r(A)p.r(U)p.r(C)p.r(U)p.r(U)p.r(G)p.r(U)p.r(A)p.r(G)p.r(A)p.r(U)p.r(G)p.r(A)p.r(G)p.d(T)p.d(T)}|RNA2{r(C)p.r(U)p.r(C)p.r(A)p.r(U)p.r(C)p.r(U)p.r(A)p.r(C)p.r(A)p.r(A)p.r(G)p.r(A)p.r(U)p.r(C)p.r(U)p.r(A)p.r(C)p.r(U)p.d(T)p.d(T)}$$$RNA1{StrandType:ss}|RNA2{StrandType:as}$” the value was 88.2%; for “RNA1{r(U)p.r(G)p.r(U)p.r(A)p.r(G)p.r(A)p.r(U)p.r(G)p.r(A)p.r(G)p.r(A)p.r(A)p.r(U)p.r(U)p.r(U)p.r(U)p.r(A)p.r(C)p.r(A)p.d(T)p.d(T)}|RNA2{r(U)p.r(G)p.r(U)p.r(A)p.r(A)p.r(A)p.r(A)p.r(U)p.r(U)p.r(C)p.r(U)p.r(C)p.r(A)p.r(U)p.r(C)p.r(U)p.r(A)p.r(C)p.r(A)p.d(A)p.d(G)}$$$RNA1{StrandType:ss}|RNA2{StrandType:as}$”, 89.5%. Turning to “RNA1{r(C)p.r(A)p.r(G)p.r(U)p.r(A)p.r(C)p.r(A)p.r(A)p.r(A)p.r(C)p.r(A)p.r(A)p.r(A)p.r(A)p.r(U)p.r(C)p.r(C)p.r(C)p.r(G)p.d(T)p.d(T)}|RNA2{r(C)p.r(G)p.r(G)p.r(G)p.r(A)p.r(U)p.r(U)p.r(U)p.r(U)p.r(G)p.r(U)p.r(U)p.r(U)p.r(G)p.r(U)p.r(A)p.r(C)p.r(U)p.r(G)p.d(A)p.d(T)}$$$RNA1{StrandType:ss}|RNA2{StrandType:as}$”, the normalised inhibition (eCFP-eYFP dual reporter) came to 70.1%.

Substance “RNA1{r(C)p.r(C)p.r(G)p.r(C)p.r(A)p.r(C)p.r(G)p.r(G)p.r(U)p.r(A)p.r(U)p.r(U)p.r(A)p.r(U)p.r(U)p.r(G)p.r(U)p.r(C)p.r(A)p.d(T)p.d(T)}|RNA2{r(U)p.r(G)p.r(A)p.r(C)p.r(A)p.r(A)p.r(U)p.r(A)p.r(A)p.r(U)p.r(A)p.r(C)p.r(C)p.r(G)p.r(U)p.r(G)p.r(C)p.r(G)p.r(G)p.d(A)p.d(G)}$$$RNA1{StrandType:ss}|RNA2{StrandType:as}$” had a normalised inhibition (eCFP-eYFP dual reporter) of 63.3%. Same read-out and setting: with “RNA1{r(U)p.r(C)p.r(C)p.r(G)p.r(G)p.r(U)p.r(U)p.r(U)p.r(A)p.r(U)p.r(C)p.r(A)p.r(C)p.r(U)p.r(A)p.r(A)p.r(A)p.r(A)p.r(U)p.d(T)p.d(T)}|RNA2{r(A)p.r(U)p.r(U)p.r(U)p.r(U)p.r(A)p.r(G)p.r(U)p.r(G)p.r(A)p.r(U)p.r(A)p.r(A)p.r(A)p.r(C)p.r(C)p.r(G)p.r(G)p.r(A)p.d(C)p.d(C)}$$$RNA1{StrandType:ss}|RNA2{StrandType:as}$” the figure was 73%; with “RNA1{r(U)p.r(G)p.r(G)p.r(G)p.r(C)p.r(A)p.r(G)p.r(C)p.r(U)p.r(G)p.r(C)p.r(A)p.r(A)p.r(U)p.r(G)p.r(A)p.r(C)p.r(U)p.r(C)p.d(T)p.d(T)}|RNA2{r(G)p.r(A)p.r(G)p.r(U)p.r(C)p.r(A)p.r(U)p.r(U)p.r(G)p.r(C)p.r(A)p.r(G)p.r(C)p.r(U)p.r(G)p.r(C)p.r(C)p.r(C)p.r(A)p.d(T)p.d(T)}$$$RNA1{StrandType:ss}|RNA2{StrandType:as}$”, 44.2%; with “RNA1{r(C)p.r(C)p.r(A)p.r(G)p.r(A)p.r(A)p.r(A)p.r(C)p.r(A)p.r(U)p.r(A)p.r(C)p.r(C)p.r(C)p.r(A)p.r(U)p.r(U)p.r(U)p.r(A)p.d(T)p.d(T)}|RNA2{r(U)p.r(A)p.r(A)p.r(A)p.r(U)p.r(G)p.r(G)p.r(G)p.r(U)p.r(A)p.r(U)p.r(G)p.r(U)p.r(U)p.r(U)p.r(C)p.r(U)p.r(G)p.r(G)p.d(T)p.d(A)}$$$RNA1{StrandType:ss}|RNA2{StrandType:as}$”, 72.4%.

With “RNA1{r(U)p.r(C)p.r(U)p.r(U)p.r(G)p.r(U)p.r(A)p.r(G)p.r(A)p.r(U)p.r(G)p.r(A)p.r(G)p.r(A)p.r(A)p.r(U)p.r(U)p.r(U)p.r(U)p.d(T)p.d(T)}|RNA2{r(A)p.r(A)p.r(A)p.r(A)p.r(U)p.r(U)p.r(C)p.r(U)p.r(C)p.r(A)p.r(U)p.r(C)p.r(U)p.r(A)p.r(C)p.r(A)p.r(A)p.r(G)p.r(A)p.d(T)p.d(C)}$$$RNA1{StrandType:ss}|RNA2{StrandType:as}$”, the normalised inhibition (eCFP-eYFP dual reporter) was determined as 84.4%. For “RNA1{r(C)p.r(U)p.r(G)p.r(A)p.r(A)p.r(A)p.r(G)p.r(A)p.r(U)p.r(C)p.r(A)p.r(A)p.r(U)p.r(G)p.r(G)p.r(G)p.r(C)p.r(A)p.r(G)p.d(T)p.d(T)}|RNA2{r(C)p.r(U)p.r(G)p.r(C)p.r(C)p.r(C)p.r(A)p.r(U)p.r(U)p.r(G)p.r(A)p.r(U)p.r(C)p.r(U)p.r(U)p.r(U)p.r(C)p.r(A)p.r(G)p.d(G)p.d(A)}$$$RNA1{StrandType:ss}|RNA2{StrandType:as}$”, the normalised inhibition (eCFP-eYFP dual reporter) came out at 79.2%. “RNA1{r(C)p.r(A)p.r(G)p.r(A)p.r(G)p.r(C)p.r(C)p.r(A)p.r(G)p.r(A)p.r(U)p.r(G)p.r(A)p.r(U)p.r(C)p.r(C)p.r(A)p.r(C)p.r(A)p.d(T)p.d(T)}|RNA2{r(U)p.r(G)p.r(U)p.r(G)p.r(G)p.r(A)p.r(U)p.r(C)p.r(A)p.r(U)p.r(C)p.r(U)p.r(G)p.r(G)p.r(C)p.r(U)p.r(C)p.r(U)p.r(G)p.d(C)p.d(A)}$$$RNA1{StrandType:ss}|RNA2{StrandType:as}$” had a normalised inhibition (eCFP-eYFP dual reporter) of 82.5%.

For the origin of these results see the OligoGym collection.
